Assay in all cases: Agar well diffusion assay
Holding throughout (format): cell-based

The subject of test [1] is Aspergillus fumigatus (RCMB 02567). Conditions: samples at 100 μl, mean ± SD. The procedure:
(§1) Antimicrobial activity of nanoparticles was determined using the agar well diffusion assay method as described by Holder and Boyce, 1994. Three bacterial (two gram positive and one gram negative) and […], namely, Bacillis suhtilis (RCMB 010067), […] pneumoniae (RCMB 010011), Escherichia coli (RCMB 010052), and Aspergillus fumigatus (RCMB 02568). The tested organisms were sub-cultured on nutrient agar medium (Oxoid laboratories, UK) for bacteria and Sabouraud dextrose agar (Oxoid laboratories, UK) for fungi. Ampicillin and Gentamicin were used as positive control for gram positive and gram negative bacteria, respectively, while Amphotericin B was used for fungi. The plates were done in triplicates. Bacterial cultures were incubated at 37° C. for 24 h, while the fungal cultures were incubated at 25-30° C. for 3-7 days. Antimicrobial activity was determined by measuring the zone of inhibition [A. Agwa, (2000)]. The antimicrobial effect of the B. aegyptiaca nanoparticles was evaluated against different gram positive and gram negative bacteria as well as fungi. The results of the antimicrobial effects of the synthesized nanoparticles are compiled in the Tables below.

Test [2] deals with Aspergillus fumigatus (RCMB 02568). Conditions: 100 μl per well, mean ± SD. Here is the method: as §1
Test [3] concerns Geotricum candidum (RCMB 05097). Conditions: 100 μl per well, mean ± SD.
Test [4] relates to Escherichia coli (RCMB 010054). Conditions: samples at 100 μl, mean ± SD.
Test [5] deals with Salmonella typhimurium (RCMB 010072). Conditions: 100 μl per well, mean ± SD.
Test [6] has as its system Escherichia coli (RCMB 010052). Conditions: 100 μl per well, mean ± SD. Here is the method:
as §1

Test [7] has as its system Klebsiella pneumoniae (RCMB 000111). Conditions: 100 μl per well, mean ± SD.
For test [8], the system named is Pseudomonas aeruginosa (RCMB 010043). Conditions: 100 μl per well, mean ± SD.
Test [9] deals with Bacillis subtilis (RCMB 010068). Conditions: samples at 100 μl, mean ± SD. Here is the method: as §1
In test [10] the test system is Streptococcus pneumoniae (RCMB 010011). Conditions: samples at 100 μl, mean ± SD. The procedure:
as §1

The test system of test [11] is Bacillis subtilis (RCMB 010067). Conditions: 100 μl per well, mean ± SD. The procedure: as §1
Test [12] relates to Staphylococcus aureus (RCMB 010028). Conditions: 100 μl per well, mean ± SD.

Experimental findings from US9889170B1, “Synthesis of nanoparticles using Balanites aegyptiaca” (KING SAUD UNIVERSITY, priority 2016, dated 2018) are described below.

On to `C[C@@H]1[C@H](O)[C@@H](C)/C=C/C=C/C=C/C=C/C=C/C=C/C=C/[C@H](O[C@@H]2O[C@H](C)[C@@H](O)[C@H](N)[C@@H]2O)C[C@@H]2O[C@](O)(C[C@@H](O)C[C@@H](O)[C@H](O)CC[C@@H](O)C[C@@H](O)CC(=O)O[C@H]1C)C[C@H](O)[C@H]2C(=O)O` [Amphotericin B], for which the “Diameter of the inhibition zone beyond the well diameter of 6 mm” value in test [1] is 21.7 ± 1.5 mm. Further, the “Mean zone of inhibition beyond well diameter (6 mm)” value in test [2] was 23.7 ± 0.10 mm; in [3] it was 28.7 ± 0.22 mm.
Regarding Gentamicin, the “Diameter of the inhibition zone beyond the well diameter of 6 mm” value in [4] is given as 20.3 ± 0.58 mm. Further, the “Mean zone of inhibition beyond well diameter (6 mm)” value in [5] worked out at 25.4 ± 0.18 mm; in [6] it was 22.3 ± 0.18 mm; in test [7] it was 20.2 ± 0.25 mm; in [8], 17.3 ± 0.15 mm.
For `CC1(C)S[C@@H]2[C@H](NC(=O)[C@H](N)c3ccccc3)C(=O)N2[C@H]1C(=O)O` [Ampicillin], the “Diameter of the inhibition zone beyond the well diameter of 6 mm” value in test [9] was 31.3 ± 1.5 mm; in test [10], 21.0 ± 1.0 mm. Moreover, the figures for the “Mean zone of inhibition beyond well diameter (6 mm)” value in [11] and in [12] were 32.4 ± 0.10 mm and 27.4 ± 0.18 mm, respectively.
